The source of these data is patent publication US6048892A, “Ester compound pesticide containing thereof” (Sumitomo Chemical Company, Limited, priority 1999, dated 2000).

What all share (format): in vivo
Data set [1] relates to brown planthopper (Nilaparvata lugens). Briefly: Biological Test 2: mortality of larvae on dipped rice plant stalk. To be noted: 144 h, read-out: mortality of the larvae. On the procedure: A stalk of a rice plant was dipped for one minute in a 500 ppm aqueous emulsion obtained by diluting each emulsifiable concentrate of the present compounds prepared according to the formulation example 1. The rice plant stalk was air-dried and placed in a polyethylene cup (diameter: 5.5 cm) where filter paper (diameter: 5.5 cm) impregnated with 1 ml of water was put. Approximately 30 larvae of brown planthopper (Nilaparvata lugens) were put in the polyethylene cup. After 6 days, the mortality of the larvae was examined.

Data set [2] concerns southern corn rootworm (Diabrotica undecimpunctata howardi). Briefly: Biological Test 3: mortality of hatched larvae and eggs. Conditions: 192 h, read-out: mortality of the hatched larvae and eggs. The text has this: Filter paper of 5.5 cm in diameter was laid in the bottom of a polyethylene cup (diameter: 5.5 cm). […] After 8 days, the mortality of the hatched larvae and eggs was examined.

The subject of data set [3] is houseflies (Musca domestica). As to the kind of experiment: Biological Test 4: mortality of female houseflies low sensitive to pyrethroids, treated filter paper. Conditions: 24 h. How it is done: Filter paper of 5.5 cm in diameter was laid in the bottom of a polyethylene cup (diameter: 5.5 cm). After 0.7 ml of a 500 ppm aqueous emulsion obtained by diluting each emulsifiable concentrate prepared according to the formulation example 1 was dropped on the filter paper and approximately 30 mg of sucrose as bait was uniformly scattered. Ten female houseflies (Musca domestica), which were low sensitive to pyrethroids, were left in the cup with a cover. After one day, the mortality was examined.

The subject of data set [4] is German cockroaches (Blattella germanica). As to the kind of experiment: Biological Test 5: mortality of male German cockroaches low sensitive to pyrethroids, treated filter paper. Conditions: 144 h. How it is done: Filter paper of 5.5 cm in diameter was laid in the bottom of a polyethylene cup (diameter: 5.5 cm). After 0.7 ml of a 500 ppm aqueous emulsion obtained by diluting each emulsifiable concentrate prepared according to the formulation example 1 was dropped on the filter paper and approximately 30 mg of sucrose as bait was uniformly scattered. Two male German cockroaches (Blattella germanica), which were low sensitive to pyrethroids, were left in the cup with a cover. After six days, the mortality was examined.

The subject of data set [5] is common mosquitoes (Culex pipiens pallens). Briefly: Biological Test 6: mortality of last-instar mosquito larvae in water. Conditions: 24 h, read-out: mortality of the common mosquitoes. How it is done: 0.7 ml of aqueous emulsion, obtained by diluting emulsifiable concentrate prepared for each of the present compounds according to the formulation example 1, was added to 100 ml of ion-exchanged water (concentration of active ingredient: 3.5 ppm). Twenty last-instar larvae of common mosquitoes (Culex pipiens pallens) were left in the water. After one day, the mortality of the common mosquitoes was examined.

Data set [6] shares this test system. Briefly: Biological Test 7: knock-down of mosquitoes by sprayed oil solution. Conditions: 0.7 ml of 0.1% oil solution sprayed in 0.34 m^3 chamber; after 15 minutes. How it is done:
Ten female common mosquitoes (Culex pipiens pallens) were left in a glass chamber (70 cm×70 cm×70 cm: 0.34 m^3). 0.7 ml of 0.1% oil solution prepared for each of the present compounds according to the formulation example 7 was sprayed with a spray gun at 0.8 atmospheric pressure. After 15 minutes, the rate of knocked-down mosquitoes was examined.

The test system is the same in data set [7]. As to the kind of experiment: Biological Test 11: mosquitoes in cup over treated aluminum plate without direct contact, mortality. Conditions: 24 h. How it is done: After 0.64 ml of a 0.05 (w/v) % acetone solution of the present compounds was dropped into an aluminum plate (bottom diameter: 7 cm), acetone was air-dried. Ten female common mosquitoes (Culex pipiens pallens) were left in a polyethylene cup (diameter: 9 cm; depth: 4.5 cm) and the cup was sealed with a 16-mesh nylon net to prevent direct contact of the mosquitoes with the compound. The cup was placed upside down on the aluminum plate at 25° C. for 120 minutes. The cup was then removed from the aluminum plate, and water and feed were given to the mosquitoes. After 24 hours, the mortality was examined (two replicate).

For data set [8], the system named is webbing clothes moth (Tineola bisselliella). As to the kind of experiment: Biological Test 13: volatile agent in cup, mortality and fabric damage. To be noted: volatile agent (100 μg on filter paper), 950 cm^3 cup, 25° C., 1 week. On the procedure:
A wool muslin fabric (2 cm×2 cm in size) was placed on the bottom of a polyethylene cup (bottom diameter: 10 cm, opening part diameter: 12.5 cm, height: 9.5 cm, volume: 950 cm^3). Ten middle instar larvae of webbing clothes moth (Tineola bisselliella) were put in the cup and each of the volatile agents prepared according to the formulation example 14 was hung from the cap in the interior of the cup. After standing at 25° C. for 1 week, the cup was opened, and the mortality and the degree of damage of the wool muslin fabric by the moths were examined (two replicate).

Data set [9] shares this test system. As to the kind of experiment: Biological Test 14: treated filter paper in cardboard box, percent moribund, fabric damage and persistence. Conditions: 36 mg on filter paper. How it is done:
A filter paper (3.2 cm×3.2 cm in size) treated with 36 mg of each of the present compounds and two wool muslin fabrics (25 cm×25 cm in size) were hung down at the upper part of a corrugated cardboard box (29 cm×29 cm×29 cm in size). After standing at 25° C. and a humidity of 60% for 1 week, two tea-strainer balls holding 7 to 10 middle instar larvae of webbing clothes moth (Tineola bisselliella) and one piece of wool muslin cloth (2 cm×2 cm in size) were hung down at the upper part of the box. The box was closed with a lid. After one week, the box was opened, and the percent moribund and the degree of damage of the wool muslin cloth by the moths were examined. The same tests was repeated 2 weeks, 3 weeks and 5 weeks after the treatment to examine the persistance of the present compound. The degree of damage was represented by "-" in no damage, "+" in slight damage, "++" in heavy damage and "+++" in severe damage.

The test system of data set [10] is German cockroaches (Blattela germanica). As to the kind of experiment: Biological Test 15: repellency, treated sheet shelter. To be noted: 1.0 ml of 0.1% by weight acetone solution on filter paper; 24 hours. How it is done: The obtained sheet was folded as to be a triangular tube where one side of the triangle-shaped base was 3 cm.
In a plastic cup (650 ml volume), said triangular tube was placed as a shelter (cockroach hiding residence). Ten adult German cockroaches (Blattela germanica) were placed in said plastic cup together with food and water and then observed the number of cockroaches in the shelter 24 hours later (two replicate). Repellency (%) was calculated by the following formula: [formula]

For data set [11], the system named is houseflies (Musca domestica). As to the kind of experiment: Biological Test 16: topical application of compound (1) with piperonyl butoxide, mortality. To be noted: after 24 hours. How it is done:
The combination rate of piperonyl butoxide to the present compound was 0, 2, 4, 8 and 16 times. The mixture was dissolved in acetone. The acetone solution (0.5 μL) was applied to 10 female houseflies (Musca domestica) at the back thoracic region. After 24 hours, the number of dead insects was observed (2 repetition) and mortality was calculated.

A word on the mortality: it is the share of the test organisms that died. On to `Cc1ccc(COC(=O)[C@@H]2[C@H](/C=C(\Cl)C(F)(F)F)C2(C)C)o1` (relative stereo) [Compound (1), 5-methyl-2-furfuryl (1RS,cis)-3-(Z-2-chloro-3,3,3-trifluoroprop-1-enyl)-2,2-dimethylcyclopropanecarboxylate], for which the figures for the mortality at 500 ppm in [1], in data set [3] and in data set [4] were at least 90%, 100% and 100%, respectively. Besides, the mortality at 50 ppm in [2] was determined as 100%. The mortality at 3.5 ppm in data set [5] was at least 90%. The “rate of knocked-down mosquitoes” value in [6] is recorded as at least 90%. This compound also returned a mortality at 500 µg/mL in [7] of 100%. Also, the “degree of damage of the wool muslin fabric” value in data set [8] is “no damage”. Further, in data set [8] (10080 min), the mortality was found to be 100%. The degree of damage entry in [9] (After 1 week), in data set [9] (After 2 weeks), in [9] (After 3 weeks) and in data set [9] (After 5 weeks) was “-” in each case. Moreover, the “Repellency (%)” value in data set [10] came out at 100%. In addition, the “Mortality (%)” value in [11] (compound (1) 0.5 μg/female, piperonyl butoxide 0) turned out to be 30%; in data set [11] (compound (1) 0.5 + piperonyl butoxide 2.0 μg/female), 100%; in [11] (compound (1) 0.5 + piperonyl butoxide 4.0 μg/female), 100%; in data set [11] (compound (1) 0.5 + piperonyl butoxide 8.0 μg/female), 100%.
